Laboratory results: ChEMBL document CHEMBL1157356, “Discovery of pyrrolopyridine-pyridone based inhibitors of Met kinase: synthesis, X-ray crystallographic analysis, and biological activities” (J Med Chem, 2008)

Assays:
NCI-N87 = test: Antiproliferative activity against human N87 cells after 72 hrs by MTS assay; format: functional, cell-based; conditions: NCI-N87, 72 h
[1] = Antiproliferative activity against human GTL16 cells after 72 hrs by MTS assay; format: functional, cell-based; conditions: GTL 16, 72 h
[2] = target: Hepatocyte growth factor receptor (Homo sapiens, UniProt P08581); test: Inhibition of MET
Sequence of Hepatocyte growth factor receptor (P08581 whole entry): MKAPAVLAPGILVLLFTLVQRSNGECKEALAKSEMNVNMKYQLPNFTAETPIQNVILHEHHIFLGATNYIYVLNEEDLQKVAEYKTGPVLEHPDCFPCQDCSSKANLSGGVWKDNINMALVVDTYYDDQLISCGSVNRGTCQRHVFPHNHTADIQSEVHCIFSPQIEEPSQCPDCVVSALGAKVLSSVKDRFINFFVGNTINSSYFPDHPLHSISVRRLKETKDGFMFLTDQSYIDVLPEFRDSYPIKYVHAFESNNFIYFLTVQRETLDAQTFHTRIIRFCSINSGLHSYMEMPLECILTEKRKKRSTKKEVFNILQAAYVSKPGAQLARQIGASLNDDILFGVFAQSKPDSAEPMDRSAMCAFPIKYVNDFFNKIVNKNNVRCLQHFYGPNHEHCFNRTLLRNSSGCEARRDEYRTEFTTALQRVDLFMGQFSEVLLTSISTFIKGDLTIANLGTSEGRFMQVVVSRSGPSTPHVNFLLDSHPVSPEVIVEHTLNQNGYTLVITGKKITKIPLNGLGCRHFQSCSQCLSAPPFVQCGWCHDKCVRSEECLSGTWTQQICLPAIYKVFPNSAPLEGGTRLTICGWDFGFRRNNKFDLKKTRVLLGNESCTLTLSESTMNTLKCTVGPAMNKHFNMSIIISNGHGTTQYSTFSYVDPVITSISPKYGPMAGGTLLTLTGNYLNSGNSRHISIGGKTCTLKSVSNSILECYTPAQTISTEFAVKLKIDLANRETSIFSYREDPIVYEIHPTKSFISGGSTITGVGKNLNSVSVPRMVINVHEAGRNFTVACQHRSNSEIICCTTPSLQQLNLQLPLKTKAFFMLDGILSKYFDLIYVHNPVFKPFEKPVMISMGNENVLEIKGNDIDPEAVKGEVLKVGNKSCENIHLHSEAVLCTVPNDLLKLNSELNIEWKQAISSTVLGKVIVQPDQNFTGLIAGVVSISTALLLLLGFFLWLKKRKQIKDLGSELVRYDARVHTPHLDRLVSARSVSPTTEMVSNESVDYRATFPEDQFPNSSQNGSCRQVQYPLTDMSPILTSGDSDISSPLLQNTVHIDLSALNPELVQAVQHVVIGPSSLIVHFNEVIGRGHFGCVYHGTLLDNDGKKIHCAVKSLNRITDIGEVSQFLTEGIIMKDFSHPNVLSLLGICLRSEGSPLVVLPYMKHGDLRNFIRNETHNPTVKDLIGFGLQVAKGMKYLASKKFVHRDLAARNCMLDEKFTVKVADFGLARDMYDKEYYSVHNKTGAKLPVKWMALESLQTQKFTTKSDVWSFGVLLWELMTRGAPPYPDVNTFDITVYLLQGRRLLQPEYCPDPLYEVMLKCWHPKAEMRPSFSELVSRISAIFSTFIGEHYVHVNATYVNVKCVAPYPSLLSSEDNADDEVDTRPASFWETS

[3] = target: T1, Receptor-type tyrosine-protein kinase FLT3 (Homo sapiens, UniProt P36888); test: Inhibition of Flt3
T1 sequence (P36888 whole entry): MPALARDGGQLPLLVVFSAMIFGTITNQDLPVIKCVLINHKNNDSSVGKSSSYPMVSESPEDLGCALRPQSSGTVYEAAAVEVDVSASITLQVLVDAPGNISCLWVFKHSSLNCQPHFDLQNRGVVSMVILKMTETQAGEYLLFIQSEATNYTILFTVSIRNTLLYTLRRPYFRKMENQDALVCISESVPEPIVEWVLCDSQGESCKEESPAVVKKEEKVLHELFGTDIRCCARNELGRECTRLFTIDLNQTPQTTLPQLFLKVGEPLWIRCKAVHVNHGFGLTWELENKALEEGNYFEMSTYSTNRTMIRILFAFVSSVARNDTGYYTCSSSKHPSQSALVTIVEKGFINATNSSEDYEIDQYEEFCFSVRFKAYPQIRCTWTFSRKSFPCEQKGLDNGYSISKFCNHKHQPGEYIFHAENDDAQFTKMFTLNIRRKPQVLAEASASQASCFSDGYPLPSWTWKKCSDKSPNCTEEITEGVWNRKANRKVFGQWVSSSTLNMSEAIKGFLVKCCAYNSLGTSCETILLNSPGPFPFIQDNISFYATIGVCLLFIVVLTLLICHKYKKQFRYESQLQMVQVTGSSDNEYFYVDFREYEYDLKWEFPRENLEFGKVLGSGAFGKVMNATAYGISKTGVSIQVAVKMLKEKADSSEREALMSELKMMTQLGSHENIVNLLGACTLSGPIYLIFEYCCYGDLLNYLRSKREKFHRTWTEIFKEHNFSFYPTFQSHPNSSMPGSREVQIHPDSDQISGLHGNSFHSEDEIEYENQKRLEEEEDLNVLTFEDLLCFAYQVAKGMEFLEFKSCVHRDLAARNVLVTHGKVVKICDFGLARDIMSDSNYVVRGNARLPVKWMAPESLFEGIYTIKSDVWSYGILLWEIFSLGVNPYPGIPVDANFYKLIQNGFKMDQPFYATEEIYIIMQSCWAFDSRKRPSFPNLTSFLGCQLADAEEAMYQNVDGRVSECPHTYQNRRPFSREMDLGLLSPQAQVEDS

[4] = Volume of distribution at steady state in BALB/c mouse at 5 mg/kg, iv; format: ADME, organism-based; design: dose 5 mg/kg, route intravenous; conditions: in vivo, read-out: Vdss
Liver microsomes = test: Metabolic stability in human liver microsomes assessed as metabolic rate per mg of protein at 3 uM; format: ADME, Microsome
[5] = Cmax in BALB/c mouse at 10 mg/kg, po; format: ADME, organism-based; design: dose 10 mg/kg, route oral; conditions: in vivo
[6] = Tmax in BALB/c mouse at 10 mg/kg, po; format: ADME, organism-based; design: dose 10 mg/kg, route oral; conditions: in vivo
[7] = Metabolic stability in mouse liver microsomes assessed as metabolic rate per mg of protein at 3 uM; format: ADME, Microsome
[8] = Half life in BALB/c mouse at 10 mg/kg, po; format: ADME, organism-based; design: dose 10 mg/kg, route oral; conditions: in vivo
[9] = Antitumor activity against human GTL16 cells xenografted BALB/c mouse assessed as induction of tumor regression at 50 mg/kg, po qd administered 14 days after tumor implantation; format: functional; conditions: GTL 16, 336 h, read-out: TGI
[10] = target: Tyrosine-protein kinase Lck (Homo sapiens, UniProt P06239)
Serum [11] = test: Protein binding in human serum at 10 uM by equilibrium dialysis method; format: ADME, cell-free
[12] = target: Cyclin-dependent kinase 2 (Homo sapiens, UniProt P24941); test: Inhibition of CDK2/cyclin E
[13] = target: Protein kinase C alpha type (Homo sapiens, UniProt P17252); test: Inhibition of PKCalpha
[14] = Antitumor activity against human GTL16 cells xenografted BALB/c mouse assessed as induction of complete tumor stasis at 25 mg/kg, po qd administered 14 days after tumor implantation; format: functional; conditions: GTL 16, 336 h, read-out: TGI
[15] = AUC (0 to 24 hrs) in BALB/c mouse at 5 mg/kg, iv; format: ADME, organism-based; design: time < 24 hr, dose 5 mg/kg, route intravenous; conditions: plasma
[16] = Oral bioavailability in BALB/c mouse at 10 mg/kg, po; format: ADME, organism-based; conditions: in vivo
[17] = Mean residence time in BALB/c mouse at 5 mg/kg, iv; format: ADME, organism-based; design: dose 5 mg/kg, route intravenous; conditions: in vivo
[18] = target: Vascular endothelial growth factor receptor 2 (Homo sapiens, UniProt P35968); test: Inhibition of VEGFR2
[19] = target: Insulin-like growth factor 1 receptor (Homo sapiens, UniProt P08069); test: Inhibition of IGF1R
Sequence of Insulin-like growth factor 1 receptor (P08069 31-736 limits assumed): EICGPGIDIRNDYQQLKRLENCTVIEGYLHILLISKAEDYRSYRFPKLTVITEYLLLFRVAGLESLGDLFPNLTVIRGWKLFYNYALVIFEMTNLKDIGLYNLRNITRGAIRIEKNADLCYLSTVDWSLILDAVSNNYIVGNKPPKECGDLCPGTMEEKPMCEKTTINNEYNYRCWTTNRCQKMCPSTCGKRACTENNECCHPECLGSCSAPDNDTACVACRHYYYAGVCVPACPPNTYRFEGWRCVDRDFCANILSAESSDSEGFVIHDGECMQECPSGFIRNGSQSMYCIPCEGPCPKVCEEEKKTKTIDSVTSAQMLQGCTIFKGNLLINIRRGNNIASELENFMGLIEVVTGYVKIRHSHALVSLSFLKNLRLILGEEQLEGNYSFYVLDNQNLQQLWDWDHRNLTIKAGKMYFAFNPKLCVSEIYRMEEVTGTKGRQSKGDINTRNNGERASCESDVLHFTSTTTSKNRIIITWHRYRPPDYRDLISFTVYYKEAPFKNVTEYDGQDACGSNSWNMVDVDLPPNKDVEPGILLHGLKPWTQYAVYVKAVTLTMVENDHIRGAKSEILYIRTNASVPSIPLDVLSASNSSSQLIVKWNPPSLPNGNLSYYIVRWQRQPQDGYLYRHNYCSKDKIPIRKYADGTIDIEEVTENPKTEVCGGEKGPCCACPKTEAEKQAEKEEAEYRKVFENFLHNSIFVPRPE
Sequence of Insulin-like growth factor 1 receptor (P08069 741-1367 limits assumed): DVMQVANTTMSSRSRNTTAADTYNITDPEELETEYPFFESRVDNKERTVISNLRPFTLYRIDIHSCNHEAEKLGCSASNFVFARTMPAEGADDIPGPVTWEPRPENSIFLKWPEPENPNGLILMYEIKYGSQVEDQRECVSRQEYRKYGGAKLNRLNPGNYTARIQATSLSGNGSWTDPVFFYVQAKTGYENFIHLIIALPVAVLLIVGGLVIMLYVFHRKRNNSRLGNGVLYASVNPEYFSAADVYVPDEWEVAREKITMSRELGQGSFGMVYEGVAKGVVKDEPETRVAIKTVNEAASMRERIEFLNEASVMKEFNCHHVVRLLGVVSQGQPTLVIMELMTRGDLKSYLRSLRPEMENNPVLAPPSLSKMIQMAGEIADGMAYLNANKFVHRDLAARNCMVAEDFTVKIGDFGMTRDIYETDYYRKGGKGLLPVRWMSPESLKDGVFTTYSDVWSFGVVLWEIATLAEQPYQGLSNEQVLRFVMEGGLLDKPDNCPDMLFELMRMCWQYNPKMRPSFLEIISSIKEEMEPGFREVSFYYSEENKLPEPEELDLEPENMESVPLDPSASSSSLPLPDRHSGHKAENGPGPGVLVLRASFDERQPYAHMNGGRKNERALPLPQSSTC

[20] = target: MAP kinase-activated protein kinase 2 (Homo sapiens, UniProt P49137); test: Inhibition of MK2
[21] = Toxicity in human GTL16 cells xenografted BALB/c mouse assessed as maximum tolerated dose at 100 mg/kg, po qd administered 14 days after tumor implantation; format: organism-based; design: dose 100 mg/kg, route oral; conditions: in vivo
[22] = Clearance in BALB/c mouse at 5 mg/kg, iv; format: ADME, organism-based; design: dose 5 mg/kg, route intravenous; conditions: in vivo
Insulin receptor = Insulin receptor (Homo sapiens, UniProt P06213); test: Inhibition of InsR
Sequence of Insulin receptor (P06213 28-758 limits assumed): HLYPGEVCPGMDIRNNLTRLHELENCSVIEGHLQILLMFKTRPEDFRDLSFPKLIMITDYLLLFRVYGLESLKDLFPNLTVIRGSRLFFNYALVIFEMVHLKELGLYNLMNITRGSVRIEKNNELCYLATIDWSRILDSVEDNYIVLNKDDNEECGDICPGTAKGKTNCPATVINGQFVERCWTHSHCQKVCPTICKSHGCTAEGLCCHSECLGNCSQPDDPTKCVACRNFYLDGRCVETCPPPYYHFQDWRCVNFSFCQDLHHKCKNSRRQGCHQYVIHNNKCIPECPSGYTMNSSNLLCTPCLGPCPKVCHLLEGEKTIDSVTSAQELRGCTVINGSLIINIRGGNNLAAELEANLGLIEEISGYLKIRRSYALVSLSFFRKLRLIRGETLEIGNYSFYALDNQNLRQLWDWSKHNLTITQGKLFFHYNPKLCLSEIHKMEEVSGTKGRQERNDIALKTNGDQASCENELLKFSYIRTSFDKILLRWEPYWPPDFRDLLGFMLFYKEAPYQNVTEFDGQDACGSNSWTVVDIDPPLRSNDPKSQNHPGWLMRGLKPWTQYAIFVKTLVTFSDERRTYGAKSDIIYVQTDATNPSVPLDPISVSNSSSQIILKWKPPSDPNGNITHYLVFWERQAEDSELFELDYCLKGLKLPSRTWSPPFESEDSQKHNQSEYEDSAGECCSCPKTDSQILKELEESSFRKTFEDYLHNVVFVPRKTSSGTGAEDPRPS
Sequence of Insulin receptor (P06213 763-1382 limits assumed): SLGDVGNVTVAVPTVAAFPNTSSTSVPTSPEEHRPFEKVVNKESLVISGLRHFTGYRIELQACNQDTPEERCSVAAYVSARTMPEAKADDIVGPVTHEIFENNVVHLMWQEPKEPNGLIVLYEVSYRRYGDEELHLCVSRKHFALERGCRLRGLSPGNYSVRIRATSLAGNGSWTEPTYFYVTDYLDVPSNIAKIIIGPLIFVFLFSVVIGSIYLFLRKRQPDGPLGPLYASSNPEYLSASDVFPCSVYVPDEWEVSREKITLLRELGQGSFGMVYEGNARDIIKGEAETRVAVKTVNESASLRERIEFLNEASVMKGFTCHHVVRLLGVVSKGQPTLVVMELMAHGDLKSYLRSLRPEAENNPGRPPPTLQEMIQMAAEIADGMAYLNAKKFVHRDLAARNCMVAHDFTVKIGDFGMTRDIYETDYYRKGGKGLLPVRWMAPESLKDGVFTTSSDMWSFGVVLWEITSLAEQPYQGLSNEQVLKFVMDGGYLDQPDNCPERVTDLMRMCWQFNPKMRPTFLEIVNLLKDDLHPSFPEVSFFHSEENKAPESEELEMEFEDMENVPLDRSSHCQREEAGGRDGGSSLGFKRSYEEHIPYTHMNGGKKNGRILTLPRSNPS

[23] = Inhibition of PKA
[24] = target: Mast/stem cell growth factor receptor Kit (Homo sapiens, UniProt P10721); test: Inhibition of c-Kit
[25] = Mean residence time in BALB/c mouse at 10 mg/kg, po; format: ADME, organism-based; design: dose 10 mg/kg, route oral; conditions: in vivo
[26] = AUC (0 to 24 hrs) in BALB/c mouse at 10 mg/kg, po; format: ADME, organism-based; design: time < 24 hr, dose 10 mg/kg, route oral; conditions: plasma
Serum [27] = test: Protein binding in mouse serum at 10 uM by equilibrium dialysis method; format: ADME, cell-free
[28] = Half life in BALB/c mouse at 5 mg/kg, iv; format: ADME, organism-based; design: dose 5 mg/kg, route intravenous; conditions: in vivo
[29] = Antitumor activity against human GTL16 cells xenografted po dosed BALB/c mouse administered once daily 14 days after tumor implantation; format: functional; conditions: GTL 16, po, 336 h, read-out: MED
[30] = Antitumor activity against human GTL16 cells xenografted BALB/c mouse assessed as at 12.5 mg/kg, po qd administered 14 days after tumor implantation; conditions: GTL 16, po, 336 h, read-out: TGI

O=C(Nc1ccc(Oc2ccnc3[nH]ccc23)c(F)c1)c1cncc(-c2ccc(F)cc2)c1O
IC50 (NCI-N87): 1240 nM
IC50 [1]: 70 nM
IC50 [2]: 2.8 nM

O=C(Nc1ccc(Oc2ccnc3[nH]ccc23)c(F)c1)c1cccc(-c2ccccc2)n1
IC50 [2]: 470 nM

O=C(Nc1ccc(Oc2ccnc3[nH]ccc23)c(F)c1)c1cccn(-c2ccc(F)cc2)c1=O
IC50 [3]: 4 nM
Vd [4]: 1.6 L/kg
Stability (Liver microsomes): < 0.01 nM/min/mg
Cmax [5]: 11.5 µM
Tmax [6]: 0.5 h
Stability [7]: 0.055 nM/min/mg
half-life [8]: 2.2 h
inhibition in vivo at 50 mg/kg [9]: 110%
IC50 [10]: 290 nM
Activity (Serum [11]): 99.9%
IC50 [12]: > 1000 nM
IC50 [13]: > 30000 nM
inhibition in vivo at 25 mg/kg [14]: 86%
AUC(0-t) at 24 h [15]: 19.8 µM·h
bioavailability [16]: 100%
MRT [17]: 3 h
IC50 [18]: 27 nM
IC50 [19]: > 5000 nM
IC50 [20]: > 10000 nM
MTD at 336 h [21]: 100 mg/kg
clearance [22]: 9.2 mL/min/kg
IC50 (Insulin receptor): > 5000 nM
IC50 (NCI-N87): > 5000 nM
IC50 [23]: > 30000 nM
IC50 [24]: 610 nM
MRT [25]: 4.5 h
AUC(0-t) at 24 h [26]: 50.2 µM·h
Activity (Serum [27]): 99.4%
half-life [28]: 2.5 h
minimal effective dose [29]: 12.5 mg/kg
inhibition in vivo at 12.5 mg/kg [30]: 62%

O=C(Nc1ccc(Oc2ccnc3[nH]ccc23)c(F)c1)c1cn(-c2ccc(Cl)c(F)c2)cc(-c2ccc(F)cc2)c1=O
IC50 (NCI-N87): > 5000 nM
IC50 [1]: 130 nM
IC50 [2]: 2.3 nM

O=C(Nc1ccc(Oc2ccnc3[nH]ccc23)c(F)c1)c1cccn(C2CC2)c1=O
IC50 [2]: 1000 nM

NC(=O)c1ccc(-n2cccc(C(=O)Nc3ccc(Oc4ccnc5[nH]ccc45)c(F)c3)c2=O)cc1
IC50 [1]: > 5000 nM
IC50 [2]: 1000 nM

O=C(Nc1ccc(Oc2ccnc3[nH]ccc23)c(F)c1)c1cn(CCO)cc(-c2ccc(F)cc2)c1=O
IC50 (NCI-N87): > 5000 nM
IC50 [1]: 280 nM
IC50 [2]: 3.8 nM

O=C(Nc1ccc(Oc2ccnc3[nH]ccc23)c(F)c1)c1cccn(-c2ccccn2)c1=O
IC50 (NCI-N87): > 5000 nM
IC50 [1]: 970 nM
IC50 [2]: 10 nM

O=C(Nc1ccc(Oc2ccnc3[nH]ccc23)c(F)c1)c1cn(C2CC2)cc(-c2ccc(F)cc2)c1=O
IC50 (NCI-N87): > 5000 nM
IC50 [1]: 60 nM
IC50 [2]: 3.4 nM

O=C(Nc1ccc(Oc2ccnc3[nH]ccc23)c(F)c1)c1cccn(-c2ccccc2)c1=O
IC50 (NCI-N87): > 5000 nM
IC50 [1]: 140 nM
IC50 [2]: 1.9 nM

O=C(Nc1ccc(Oc2ccnc3[nH]ccc23)c(F)c1)c1cccc(-c2ccccc2)[n+]1[O-]
IC50 (NCI-N87): > 5000 nM
IC50 [1]: 40 nM
IC50 [2]: 1.3 nM

CC(C)CCn1cccc(C(=O)Nc2ccc(Oc3ccnc4[nH]ccc34)c(F)c2)c1=O
IC50 (NCI-N87): > 5000 nM
IC50 [1]: 3700 nM
IC50 [2]: 30 nM

CC(C)(C)n1cccc(C(=O)Nc2ccc(Oc3ccnc4[nH]ccc34)c(F)c2)c1=O
IC50 [2]: 1000 nM

COc1ccc(-n2cc(C(=O)Nc3ccc(Oc4ccnc5[nH]ccc45)c(F)c3)c(=O)c(-c3ccc(F)cc3)c2)cc1F
IC50 (NCI-N87): > 5000 nM
IC50 [1]: 200 nM
IC50 [2]: 5 nM

O=C(Nc1ccc(Oc2ccnc3[nH]ccc23)c(F)c1)c1cccn(Cc2ccc(F)cc2)c1=O
IC50 (NCI-N87): > 5000 nM
IC50 [1]: 2100 nM
IC50 [2]: 8.2 nM

O=C(Nc1ccc(Oc2ccnc3[nH]ccc23)c(F)c1)c1cocc(-c2ccc(F)cc2)c1=O
IC50 [1]: > 10000 nM
IC50 [2]: 1400 nM

O=C(Nc1ccc(Oc2ccnc3[nH]ccc23)c(F)c1)c1cccc(-c2ccc(F)cc2)[n+]1[O-]
IC50 (NCI-N87): 4900 nM
IC50 [1]: 40 nM
IC50 [2]: 1.8 nM

O=C(Nc1ccc(Oc2ccnc3[nH]ccc23)c(F)c1)c1cccn(-c2cccnc2)c1=O
IC50 (NCI-N87): > 5000 nM
IC50 [1]: 4000 nM
IC50 [2]: 70 nM

Cn1cc(C(=O)Nc2ccc(Oc3ccnc4[nH]ccc34)c(F)c2)c(=O)c(-c2ccc(F)cc2)c1
IC50 (NCI-N87): 2620 nM
IC50 [1]: 150 nM
IC50 [2]: 3.1 nM
